Laboratory results taken from US20250270205A1, “COMPOSITIONS AND METHODS FOR INHIBITING TREM-1” (AUGUSTA UNIVERSITY RESEARCH INSTITUTE, INC., priority 2020, published 2025).
One block for each compound: values may come before it.

Legend:
reporter cells = experiment: Cytotoxicity on TREM-1 reporter cells; assay type: cell-based; conditions: compared to Compound 118818
Protocol: (§1) For blocking studies, TREM-1-positive cells were preincubated with each tested compounds for 4 hrs followed by stimulation with agonist antibody AF1278 for an additional 24 hrs (FIGS. 2A-2B).

TREM-1 [1] = biological target: T1, TREM-1 (Homo sapiens, UniProt Q9NP99); experiment: TREM-1 reporter cell line blocking study (GFP expression by flow cytometry); assay type: cell-based; design: expressed in transfected cells; host or cells: TREM-1 reporter cell line (GFP read-out); conditions: for binding and activation of TREM-1 receptor on reporter cells (GFP expression): TREM-1-positive reporter cells, flow cytometry; for inhibitory effect on agonist-activated TREM-1-specific cells: preincubated with compound 4 hrs, then agonist antibody AF1278 for 24 hrs
Protocol: FIG. 2A is a diagram showing that the engagement of human TREM-1 receptor activates a reporter cell line. […] FIG. 2C is a line graph of the flow cytometry data of FIG. 2B.
as §1

B16F10 cells [2] = experiment: Cell cycle assay via propidium iodide; assay type: cell-based, murine; conditions: B16F10 cells with or without treatment
Protocol: (§2) B16F10 cells were cultured in 6 well plates incubated with either vehicle alone or vehicle with VJDT at 50 μM and streaks were made using a tip when cells were at 80% confluency. Streaks were photographed at 0 hrs or 24 hrs at 100×. B16F10 cells were treated with VJDT at 50 μM concentration followed by 10 μM CFSE labeling according to manufacturer's protocol. After 48 hrs cells were analyzed by flow cytometry for CFSE intensity that will be inversely proportional to cell proliferation. Further, cell cycle assay via propidium iodide on B16F10 cells with or without VIDT treatment was performed for investigating the anti-proliferative effect of VJDT in tumor cells

[3] = system: Wild-type mice (Trem1+/+) with CCl4 injury; experiment: CCl4 liver injury, inflammatory cell infiltration at early stages of liver fibrosis; assay type: in vivo; conditions: 25 mg/kg oral
Protocol: Wild-type mice (Trem1^+/+) were orally administered VJDT (25 mg/kg) 5 consecutive days prior to injury with CCl4 (2 ml/kg, diluted 1:4 in corn oil) (24 hrs) or one dosage of control corn oil (Sigma-Aldrich, St. Louis, MO, USA). Liver cells were isolated 24 hrs after CCl4 injury, perfused with calcium and magnesium-free 40° C. prewarmed HBSS solution (Corning Life Sciences, Corning, NY, USA) and digested with collagenase type I. The cell suspension was filtered through a 70 μm cell strainer and then centrifuged at 50 g for 5 min at 4° C. to eliminate hepatocytes. Cells remaining in the supernatant were layered on HISTOPAQUE®-1083 and centrifuged at 1000 g for 15 min at 4° C. without a break. The non-parenchymal cell fraction was washed once with PBS at 300 g for 10 min at 4° C., followed by flow cytometry.
Nonparenchymal cells isolated from Trem1^+/+ livers with CCl4 injury receiving VJDT treatment were analyzed by flow cytometry to evaluate the infiltration of myeloid cells. Liver-associated cells were classified into 3 populations: F4/80^+CD11b^− resident Kupffer cells, F4/80^+CD11b^+Ly6C^hiLy6G^lo monocyte-derived macrophages and F4/80^+CD11b^+Ly6C^loLy6G^hi inflammatory neutrophils.

[4] = system: B16F10 murine melanoma cell; experiment: Wound healing assay (cell migration); assay type: cell-based; conditions: 50 μM, 24 hrs
Protocol: as §2

[5] = system: human hepatocellular carcinoma cells (HepG2); experiment: Cell proliferation, Cell Counting Kit-8 (CCK-8); assay type: cell-based; conditions: HepG2, 72 hrs treatment, n=6, read-out: IC50 to inhibit cell proliferation
Protocol: Cell proliferation was measured using Cell Counting Kit-8 (CCK-8, GLPBIO, Montclair, CA. Catalog No. GK10001) according to the manufacturer's instructions. HepG2 cells were seeded in a 96-well plate at 3×10^3 cells/well and incubated at 37° C. in complete medium for 24 hrs before being treated with the indicated concentrations of VIDT for 72 hrs. After treatment, cells were incubated with 10 μl CCK8 at 37° C. for 2 hrs. Absorbance at 450 nm was determined using a microplate reader. The IC50 value was calculated on the nonlinear regression fit method by the GraphPad Prism software.

B16F10 cells [6] = experiment: CFSE cell proliferation assay; assay type: cell-based, murine; conditions: 50 μM, 48 hrs; listed as VIDT
Protocol: as §2

TREM-1 [7] = biological target: T1, TREM-1; experiment: TREM-1-mediated proinflammatory cytokine production by activated human neutrophils (flow cytometry); assay type: cell-based; design: endogenous in cells; host or cells: PBMCs from healthy human volunteers, gated on CD15/CD16 neutrophils; conditions: IL-8, IL-6, IL-12 intracellular staining, vs MH and NCI 118818
Protocol: Quantification (percentage) of cytokine-positive neutrophils from untreated, Morin Hydrate (MH)-treated, 118818-treated, and VJDT 8293-treated compounds (from triplicates) was performed. Cells isolated from the same healthy volunteer have been used for indicated experiments.
PBMCs were stained cell surface markers CD15 and CD16. In addition, intracellular staining for proinflammatory cytokines, such as IL-8, IL-6 and IL-12, was performed. PBMCs were gated on CD15, CD16 markers to identify the population of neutrophils.

neutrophils = experiment: Assessment of cytotoxicity: number of neutrophils in TREM-1 agonist Ab-stimulated PBMCs; conditions: human PBMCs, compound at 50 μM 2 hrs pretreatment, TREM-1 agonist Ab 24 hrs
Protocol: Peripheral blood mononuclear cells (PBMCs) were isolated from healthy volunteers and were stimulated with TREM-1 agonist Ab for 24 hrs, at concentration of 4 μg/ml (red) or pretreated with indicated compounds (at 50 μM) for 2 hrs and stimulated with agonist AB at concentration of 4 pg/mlfor 24 hrs (blue)

T1 sequence (Q9NP99 21-234): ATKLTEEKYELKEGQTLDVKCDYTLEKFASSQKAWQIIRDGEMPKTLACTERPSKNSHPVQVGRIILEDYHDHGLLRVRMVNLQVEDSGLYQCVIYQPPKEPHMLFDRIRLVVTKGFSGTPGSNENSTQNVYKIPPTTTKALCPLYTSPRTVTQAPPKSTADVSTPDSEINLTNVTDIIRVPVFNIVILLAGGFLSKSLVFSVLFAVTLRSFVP

Structure (SMILES): Cc1ccc(NC(=O)Nc2nc3ccccc3s2)cc1NC(=O)Nc1nc2ccccc2s1 [Compound 319990]
- cytotoxicity effect on reporter cells (reporter cells): higher cytotoxicity effect
- binding and activation of TREM-1 receptor on reporter cells (GFP expression) (TREM-1 [1]): significant enhancement of GFP expression

- inhibitory effect on agonist-activated TREM-1-specific cells (TREM-1 [1]): did not provide any inhibitory effect
Structure (SMILES): O=C(O)Cc1ccc(N=Nc2c(O)c(C(=O)O)cc3ccccc23)cc1 [compound 156563]
- binding and activation of TREM-1 receptor on reporter cells (GFP expression) (TREM-1 [1]): significant enhancement of GFP expression

- IC50 [5]: 14.7 µM
- inhibitory effect on TREM-1 mediated proinflammatory cytokine production (TREM-1 [7]): much stronger inhibitory effect
Structure (SMILES): N#CC1=CC2C(=O)N(Cc3ccccc3)C1C1C(=O)N(c3ccccc3)C(=O)C21 [VJDT 8293, (3aR,7aR)-9-benzyl-1,3,8-trioxo-2-phenyl-2,3,3a,4,7,7a-hexahydro-1H-4,7-(epiminomethano) isoindole-5-carbonitrile]
- cell cycle arrest (B16F10 cells [2]): significant cell cycle arrest in the S and G2 phases
- infiltration of monocyte-derived macrophages in liver ([3]; 5 consecutive days prior to CCl4 (2 ml/kg), 24 hrs after injury, p<0.001): 3-6%
- infiltration of inflammatory neutrophils in liver ([3]; 5 consecutive days prior to CCl4 (2 ml/kg), 24 hrs after injury, p<0.01): 8-10%
- protective effect to liver injury ([3]; CCl4 injury): strong protective effect
- cytokine secretion in neutrophils ([3]; compared to control group (DMSO vehicle)): significantly decreased cytokine secretion
- cell migration in wound healing assay [4]: significantly inhibits
- cell migration in wound healing assay ([4]; listed as VIDT): significantly inhibited
- cell proliferation (CFSE intensity) (B16F10 cells [6]): significantly inhibites

Structure (SMILES): N#CC1=CC2CN(Cc3ccccc3)C1C1C(=O)N(c3ccccc3)C(=O)C21 (stereo not shown) [Compound 118818, 9-Benzyl-1,3-dioxo-2-phenyl-2,3,3a,4,7,7a-hexahydro-1H-4,7-(epiminomethano) isoindole-5-carbonitrile]
- binding and activation of TREM-1 receptor on reporter cells (GFP expression) (TREM-1 [1]): significant enhancement of GFP expression
- number of neutrophils (indicating level of cytotoxicity) (neutrophils): 19,5%

- inhibitory effect on agonist-activated TREM-1-specific cells (TREM-1 [1]): did not provide any inhibitory effect
Structure (SMILES): Cc1c(O)ccc2c(O)c(NC(=O)c3ccc4c(c3)CCC(C)(C)O4)c(=O)oc12 [compound 5157]
- binding and activation of TREM-1 receptor on reporter cells (GFP expression) (TREM-1 [1]): significant enhancement of GFP expression

Structure (SMILES): O=c1c(O)c(-c2ccc(O)cc2O)oc2cc(O)cc(O)c12 [Morin Hydrate, 2′,3,4′,5,7-pentahydroxyflavone]
- number of neutrophils (indicating level of cytotoxicity) (neutrophils): 24.3%
